In PubChem BioAssay (NCI):
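Where inhibition never reached the appropriate level, the endpoint shown equals the highest concentration tested. Otherwise, values were interpolated linearly from a five-concentration, 48-hour dose response in 96-well plates. GI50: concentration for 50% inhibition of growth. Definition used: TGI = concentration required for complete inhibition of growth.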

What was measured:
Experiment in all cases: growth of human tumour cells (NCI), 48 h; in the data active = GI50 below about 0.43 µM; inactive = the rest
[1] = test system: A549 NSCLC
[2] = test system: T-47D breast
[3] = test system: PC-3 prostate
[4] = test system: OVCAR-3 ovarian
[5] = test system: RPMI-8226 leukemia
[6] = test system: MDA-MB-231 breast
[7] = test system: HT29 colon
[8] = test system: U251 CNS
[9] = test system: HCT-116 colon
[10] = test system: SK-MEL-5 melanoma
[11] = test system: UO-31 renal
[12] = test system: HCT-15 colon
[13] = test system: SF-295 CNS
[14] = test system: HOP-62 NSCLC
[15] = test system: BT-549 breast
[16] = test system: MOLT-4 leukemia
[17] = test system: NCI/ADR-RES ovarian
[18] = test system: IGROV1 ovarian
[19] = test system: SNB-19 CNS
[20] = test system: LOX IMVI melanoma
[21] = test system: 786-0 renal
[22] = test system: NCI-H226 lung
[23] = test system: UACC-62 melanoma
[24] = test system: NCI-H23 lung
[25] = test system: K-562 leukemia
[26] = test system: NCI-H522 lung
[27] = test system: SN12C renal
[28] = test system: SK-MEL-2 melanoma
[29] = test system: CCRF-CEM leukemia
[30] = test system: MALME-3M melanoma
[31] = test system: EKVX NSCLC
[32] = test system: SF-539 CNS
[33] = test system: SF-268 CNS
[34] = test system: OVCAR-4 ovarian
[35] = test system: TK-10 renal
[36] = test system: UACC-257 melanoma
[37] = test system: HL-60(TB) leukemia
[38] = test system: MCF7 breast
[39] = test system: M14 melanoma
[40] = test system: NCI-H460 lung
[41] = test system: SK-OV-3 ovarian
[42] = test system: COLO 205 colon
[43] = test system: SW-620 colon
[44] = test system: DU-145 prostate
[45] = test system: OVCAR-5 ovarian
[46] = test system: HOP-92 NSCLC
[47] = test system: OVCAR-8 ovarian
[48] = test system: ACHN renal
[49] = test system: CAKI-1 renal
[50] = test system: KM12 colon
[51] = test system: MDA-MB-435
[52] = test system: HCC-2998 colon
[53] = test system: SNB-75 CNS
[54] = test system: SR leukemia
[55] = test system: HS 578T breast
[56] = test system: SK-MEL-28 melanoma
[57] = test system: A498 renal
[58] = test system: RXF 393 renal

CCOC(=O)COc1c(OC)cc(C2C3=C(COC3=O)Oc3cc4c(cc32)OCO4)cc1OC (stereo not given)
24.9 µM: TGI [34]
0.954 µM: TGI [5]
> 57.1 µM: TGI [55]
4.88 µM: TGI [42]
14.2 µM: TGI [24]
27.1 µM: TGI [54]
> 65.9 µM: TGI [43]
41.8 µM: TGI [16]
43 µM: TGI [32]
15.5 µM: TGI [21]
0.539 µM: TGI [37]
> 45.8 µM: TGI [48]
33.7 µM: TGI [18]
> 73 µM: TGI [27]
98.1 µM: TGI [15]
81.9 µM: TGI [8]
0.89 µM: TGI [51]
17.7 µM: TGI [2]
> 31.6 µM: TGI [23]
13.8 µM: TGI [10]
47 µM: TGI [47]
> 57.5 µM: TGI [41]
20.9 µM: TGI [35]
> 100 µM: TGI [1] | TGI [3] | TGI [6] | TGI [9] | TGI [11] | TGI [12] | TGI [14] | TGI [19] | TGI [20] | TGI [22] | TGI [28] | TGI [30] | TGI [31] | TGI [33] | TGI [36] | TGI [38] | TGI [39] | TGI [45] | TGI [50] | TGI [53]
49.4 µM: TGI [40]
8.29 µM: TGI [7]
78.4 µM: TGI [4]
> 26.3 µM: TGI [13]
38.1 µM: TGI [49]
12.2 µM: TGI [25]
> 29.1 µM: TGI [44]
3.14 µM: TGI [26]
> 45.1 µM: TGI [46]
0.965 µM: TGI [29]
> 37.3 µM: TGI [17]
30.7 µM: TGI [52]

COc1ccc(C[C@H]2COC(=O)[C@@H]2Cc2ccc(O)cc2)cc1OC
> 100 µM: TGI [4] | TGI [5] | TGI [7] | TGI [9] | TGI [10] | TGI [13] | TGI [14] | TGI [16] | TGI [17] | TGI [18] | TGI [19] | TGI [20] | TGI [21] | TGI [22] | TGI [24] | TGI [25] | TGI [29] | TGI [30] | TGI [31] | TGI [34] | TGI [35] | TGI [36] | TGI [56] | TGI [39] | TGI [40] | TGI [43] | TGI [44] | TGI [45] | TGI [46] | TGI [47] | TGI [48] | TGI [57] | TGI [54] | TGI [55]

CC(C)(C)c1ccc2c(c1)CNCCNCCNCc1cc(C(C)(C)C)ccc1OCC1(CO2)COc2ccc(C(C)(C)C)cc2CNCCNCCNCc2cc(C(C)(C)C)ccc2OC1
3.17 µM: TGI [49]
0.562 µM: TGI [50]
1.83 µM: TGI [39]
3.74 µM: TGI [58]
0.379 µM: TGI [38]
1.33 µM: TGI [43]
1.97 µM: TGI [22]
2.83 µM: TGI [44] | TGI [48]

COc1ccc2[nH]cc(/C=C3/C(=O)Nc4ccc(Cl)cc43)c2c1
inactive: GI50 [16] > 100 µM | GI50 [29] 5.97 µM | GI50 [37] > 100 µM | GI50 [45] > 100 µM | GI50 [57] > 100 µM
> 100 µM: TGI [16] | TGI [29] | TGI [37] | TGI [45] | TGI [50] | TGI [57]
active: GI50 [50] 0.352 µM

O=C(CCc1ccccc1CO)NCCc1ccccc1
> 100 µM: TGI [1] | TGI [2] | TGI [3] | TGI [4] | TGI [5] | TGI [6] | TGI [7] | TGI [8] | TGI [9] | TGI [10] | TGI [11] | TGI [12] | TGI [13] | TGI [58] | TGI [14] | TGI [15] | TGI [16] | TGI [17] | TGI [18] | TGI [19] | TGI [21] | TGI [22] | TGI [23] | TGI [24] | TGI [25] | TGI [26] | TGI [27] | TGI [28] | TGI [29] | TGI [31] | TGI [32] | TGI [33] | TGI [34] | TGI [35] | TGI [36] | TGI [37] | TGI [38] | TGI [56] | TGI [39] | TGI [40] | TGI [41] | TGI [42] | TGI [43] | TGI [44] | TGI [45] | TGI [46] | TGI [47] | TGI [48] | TGI [49] | TGI [50] | TGI [51] | TGI [57] | TGI [52] | TGI [53] | TGI [54] | TGI [55]

CCN(CC)Cc1cc(Nc2ccnc3cc(Cl)ccc23)cc(-c2ccc(Cl)cc2)c1O
3.2 µM: TGI [46]
inactive: GI50 [3] 0.771 µM | GI50 [7] 1.88 µM | GI50 [12] 0.577 µM | GI50 [13] 1.39 µM | GI50 [16] 0.485 µM | GI50 [21] 1.84 µM | GI50 [24] 0.704 µM | GI50 [29] 0.999 µM | GI50 [31] 0.879 µM | GI50 [36] 1.29 µM | GI50 [41] 3.89 µM | GI50 [42] 3.05 µM | GI50 [43] 0.628 µM | GI50 [46] 0.434 µM | GI50 [49] 0.907 µM | GI50 [50] 3.08 µM | GI50 [51] 0.989 µM
4.85 µM: TGI [36]
> 100 µM: TGI [3] | TGI [7] | TGI [12] | TGI [13] | TGI [16] | TGI [21] | TGI [24] | TGI [29] | TGI [31] | TGI [41] | TGI [42] | TGI [43] | TGI [49] | TGI [50] | TGI [51]
